Source: US12054485B2, “Substituted imidazoquinolines” (BIONTECH SE, priority 2017, dated 2024)
Where two headings read alike, the source gives them in different places.

Tests used:
Type in all cases: cell-based
[1] = tested on: Human PBMCs; assay: IFN-α induction by TLR agonists in human PBMCs (Luminex)
Description: 1) IFN-α Induction Assay—IFN-α induction by TLR Agonists in Human PBMCs
Abbreviations: BSA=bovine serum albumine; PBS=phosphate buffer pH 7.4; PE=phycoerythrin; EDC=1-ethyl-3-(3-dimethylaminopropyl)carbodiimide hydrochloride.
Materials and Devices: Bio Plex 200 Luminex device, and BioPlex Manager software; MultiScreen Filter Plates (Millipore, MABVN1250); low binding reaction vials 1.5 ml (Sarstedt, 72.706.600); Activation Buffer: 0.1M Na-dihydrogen phosphate, 0.1M Di-Na hydrogen phosphate pH 6.2; Sulfo-NHS (N-hydroxysulfosuccinimide) solution: 50 mg/ml in water (freshly prepared); EDC solution: 50 mg/ml in water (freshly prepared); Coupling Buffer: PBS; Washing Buffer: PBS+0.05% Tween20; Blocking Buffer: PBS+10 mg/ml BSA+0.05% sodium azide; Assay Buffer: PBS+10 mg/ml BSA;
Other materials and devices (pipets, reaction vessels, shaker, etc.) were standard lab equipment; water was MilliQ grade quality, buffers were sterile filtered before use.
(Pre-)Incubation of Cells:
In each well of a 96-well U-bottom plate 200,000 PBMCs were pre-incubated in medium (RPMI1640-Gibco #61870-044+10% FBS+1% L-glutamine) for 5 hours at 37° C. and 5% CO2 before the compounds of the present invention or controls were added, respectively. Upon addition of compounds of the present invention or controls, the cells are incubated for another 24 h at 37° C. and 5% CO2.
Luminex assay, Step 1: Coupling of antibody to beads: • transfer a suspension (beads are stored in buffer as provided by manufacturer) of about 5 million MicroPlex Microspheres (=beads) into a low binding reaction vial • centrifuge bead suspension for 1 min at 10,000 g, discard supernatant and resuspend pellet in 160 μl Activation Buffer, repeat once • add 20 μl Sulfo-NHS solution and 20 μl EDC solution, vortex • incubate for 20 min in the absence of light • centrifuge bead suspension for 1 min at 10,000 g, discard supernatant and resuspend pellet in 500 μl Coupling Buffer, repeat once • add capture antibody (CaptureAK eBioscience #BMS160, 5 μg per 1 Mio beads) • incubate 2 h at RT in the absence of light while swaying • centrifuge bead suspension for 1 min at 10,000 g, discard supernatant and resuspend pellet in 500 μl Washing Buffer, repeat once • centrifuge bead suspension for 1 min at I0,000 g, discard supernatant and resuspend pellet in 100 μl Blocking Buffer
Luminex assay, Step 2: Measurement • add 100 μlAssay Buffer into each filter plate well (seal any unused wells with adhesive tape), then remove buffer • add about 2,000 beads per well per analyte (per analyte, a different bead type with distinct fluorescence color is used), suspended in […] of Assay Buffer • remove buffer and wash twice with 100 μl Washing Buffer per well • per well, add 50 μl sample solution from the (pre-)incubation step (cell supernatant), or Standard (IFN-α standard eBioscience #BMS216MST—concentration gradient, highest standard concentration 2500 pg/ml) or Assay Buffer (as blanks) • shake plate • incubate plate for 2 h at RT in the absence of light, while swaying the plate • wash three times with 100 μl Washing Buffer per well • add 25 μl antibody detection mix (DetectionAK eBioscience #BMS1016BT diluted 1:1000) in Assay Buffer per well, then vortex plate • incubate plate for 1 h at RT in the absence of light, while swaying the plate • wash three times with 100 μl Washing Buffer per well • add 50 μl Streptavidin/PE (diluted 1:200 in Assay Buffer) per well, then vortex plate • incubate plate for 10 min at RT in the absence of light, while swaying the plate • wash three times with 100 μl Washing Buffer per well • add 100 μl Assay Buffer per well, then vortex plate • start Luminex measurement according to manufacturer's instructions, measuring at least 50 beads per well per analyte
The compounds were tested at 8 different concentrations (1 μM, 0.3 μM, 0.1 μM, 0.03 μM, 0.01 μM 0.003 μM, 0.001 μM, 0.0003 μM) using a half-logarithmic dilution. […]

[2] = biological target: T1, human TLR7 (Homo sapiens, UniProt Q9NYK1); assay: TLR7 reporter gene assay (HEK-Blue-hTLR7, NFkB/AP-1 inducible SEAP); details: for EC50: HEK-Blue-hTLR7
T1 construct: host or cells: HEK-Blue-hTLR7
T1 sequence (Q9NYK1 27-1049): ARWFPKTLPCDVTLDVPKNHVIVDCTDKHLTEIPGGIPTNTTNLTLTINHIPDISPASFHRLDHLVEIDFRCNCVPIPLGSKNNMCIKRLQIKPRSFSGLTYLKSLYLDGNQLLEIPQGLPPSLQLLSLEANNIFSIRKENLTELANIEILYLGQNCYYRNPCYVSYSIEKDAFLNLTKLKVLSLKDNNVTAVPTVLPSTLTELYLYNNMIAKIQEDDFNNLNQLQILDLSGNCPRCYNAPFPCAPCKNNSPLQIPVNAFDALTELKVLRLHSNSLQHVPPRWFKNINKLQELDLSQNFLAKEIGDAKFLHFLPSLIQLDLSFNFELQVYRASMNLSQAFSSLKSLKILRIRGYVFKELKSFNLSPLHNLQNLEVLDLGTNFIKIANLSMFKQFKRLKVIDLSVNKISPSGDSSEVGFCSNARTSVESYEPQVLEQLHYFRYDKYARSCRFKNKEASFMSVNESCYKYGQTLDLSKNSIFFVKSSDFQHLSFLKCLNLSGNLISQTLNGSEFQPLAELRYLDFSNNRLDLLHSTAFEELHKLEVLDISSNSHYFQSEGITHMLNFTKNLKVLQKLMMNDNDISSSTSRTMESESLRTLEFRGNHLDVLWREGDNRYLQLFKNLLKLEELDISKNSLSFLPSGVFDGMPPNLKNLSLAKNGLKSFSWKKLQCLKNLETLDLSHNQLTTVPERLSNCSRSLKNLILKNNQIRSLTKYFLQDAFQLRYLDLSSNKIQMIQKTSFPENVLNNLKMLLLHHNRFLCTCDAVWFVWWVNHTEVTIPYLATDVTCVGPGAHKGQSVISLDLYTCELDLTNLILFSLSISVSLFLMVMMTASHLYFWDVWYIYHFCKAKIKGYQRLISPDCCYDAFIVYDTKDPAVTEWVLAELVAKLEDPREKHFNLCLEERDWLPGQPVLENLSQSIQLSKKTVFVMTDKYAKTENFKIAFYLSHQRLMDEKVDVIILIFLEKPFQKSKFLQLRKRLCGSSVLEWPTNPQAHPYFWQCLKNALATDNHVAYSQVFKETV
Description: (§1) 2) TLR Stimulation Assay:
(§2) Compounds are tested for stimulation of human TLR7 and TLR8, respectively, via reporter gene expression analyzed in a cell line stably transfected with human TLR7 and TLR8, respectively, and coexpressing an NFkB/AP-1 inducible SEAP reporter gene. Stimulation with a TLR ligand leads to NFkB/AP-1 activation and upregulation and secretion of SEAP, which can be measured in the supernatant with QuantiBlue™ detection system (InvivoGen).
Cell lines used were either HEK-Blue-hTLR7 (InvivoGen #hkb-htlr7) or HEK-Blue-hTLR8 (InvivoGen #hkb-htlr8). Cells were cultured following manufacturer's instructions.
Assay: • prepare cell suspensions of each cell line with Nv=0.11×10^6 cells/ml in medium (DMEM 4.5 g/l Glucose, 2-4 mM L-glutamine+10% FBS) without antibiotics (Nv=number of living cells) • add 180 μl of the suspensions per well of a 96 well flat bottom cell culture plates (coster, #3506) • incubate the plates overnight at 37° C. and 5% CO2 • prepare samples and controls as solutions in DMSO: R848, CL075 (TLR 7/8 agonist by InvivoGen) and Guardiquimod each to a final concentration of 10 μM, ODN2006 (InvivoGen) and ODN2216 (InvivoGen) each to a final concentration 2 μM; • compounds of the invention are applied in dilution series to final concentrations of 30, 10, 3, 1, etc. μM • add 20 μl diluted compounds and controls (see above) to the wells • incubate plates for 20-24 h at 37° C. and 5% CO2 • prepare QuantiBlue™ (InvivoGen #10H19-MM) solution, following manufacturer's instructions: solubilize the powder of one pouch in 100 ml MilliQ grade water, heat at 37° C. in a water bath for about 30 min, filter the solution with a paper filter • add 100 μl prepared QuantiBlue™ solution in each well of a 96 well plate with flat bottom • add […] cell culture supernatant from the induced cells per well • incubate plates for 1 to 1.5 h at 37° C. (until an intense blue color has developed) • read OD at 620 nm with a plate reader • calculate EC50 from data points

[3] = biological target: T2, human TLR8 (Homo sapiens, UniProt Q9NR97); assay: TLR8 reporter gene assay (HEK-Blue-hTLR8, NFkB/AP-1 inducible SEAP)
T2 construct: host or cells: HEK-Blue-hTLR8
T2 sequence (Q9NR97 27-1041): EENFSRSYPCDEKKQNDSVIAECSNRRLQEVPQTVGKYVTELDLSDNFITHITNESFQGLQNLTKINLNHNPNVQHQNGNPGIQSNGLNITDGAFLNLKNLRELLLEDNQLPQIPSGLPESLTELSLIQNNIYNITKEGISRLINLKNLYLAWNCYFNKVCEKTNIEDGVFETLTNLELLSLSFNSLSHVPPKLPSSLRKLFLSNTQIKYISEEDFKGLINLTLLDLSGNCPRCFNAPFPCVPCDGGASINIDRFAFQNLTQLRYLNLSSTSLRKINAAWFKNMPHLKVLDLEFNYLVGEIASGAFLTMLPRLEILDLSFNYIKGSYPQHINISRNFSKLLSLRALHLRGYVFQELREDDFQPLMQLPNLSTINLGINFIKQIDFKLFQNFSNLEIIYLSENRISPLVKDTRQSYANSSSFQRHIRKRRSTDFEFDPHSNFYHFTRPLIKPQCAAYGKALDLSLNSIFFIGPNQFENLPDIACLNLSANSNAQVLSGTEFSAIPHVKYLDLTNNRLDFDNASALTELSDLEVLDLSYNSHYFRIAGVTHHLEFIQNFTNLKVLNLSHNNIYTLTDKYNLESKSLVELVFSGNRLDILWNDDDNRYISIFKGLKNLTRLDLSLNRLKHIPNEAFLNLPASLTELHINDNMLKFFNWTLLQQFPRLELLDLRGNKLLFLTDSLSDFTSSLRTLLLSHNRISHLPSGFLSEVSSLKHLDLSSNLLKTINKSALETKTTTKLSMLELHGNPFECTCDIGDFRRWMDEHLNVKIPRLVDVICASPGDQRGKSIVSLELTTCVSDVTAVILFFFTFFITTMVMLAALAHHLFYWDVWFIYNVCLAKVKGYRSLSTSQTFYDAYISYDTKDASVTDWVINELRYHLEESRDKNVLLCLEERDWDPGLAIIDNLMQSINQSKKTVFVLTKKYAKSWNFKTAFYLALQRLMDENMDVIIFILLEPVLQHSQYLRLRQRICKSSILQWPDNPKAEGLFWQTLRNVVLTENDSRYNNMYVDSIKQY
Description: as §1, §2
Cell lines used were either HEK-Blue-hTLR7 (InvivoGen #hkb-htlr7) or HEK-Blue-hTLR8 (InvivoGen #hkb-htlr8). Cells were cultured following manufacturer's instructions. […]

[4] = comparative compounds with 2-methyltetrahydrofuran-3-yl at R3, Table 2
[5] = 24 h incubation, maximum of bell-shaped curve over 0.0003-1 μM, Table 1

| Structure (SMILES) | Maximum IFN-α release [1, 4] | Maximum IFN-α release [1, 5] | also measured |
| --- | --- | --- | --- |
| CCc1nc2c(N)nc3ccccc3c2n1CCCCN(C(C)=O)C1CCOC1C (centres unmarked) [1′] | 930 pg/mL | – | – |
| CCNCc1nc2c(N)nc3ccccc3c2n1CCCCN(C(C)=O)C1CCOC1C (centres unmarked) [3′] | 360 pg/mL | – | – |
| CCNCc1nc2c(N)nc3ccccc3c2n1CCCCN(C(N)=O)C1CCOC1C (centres unmarked) [4′] | 290 pg/mL | – | – |
| COCCc1nc2c(N)nc3ccccc3c2n1CCCCN(C(C)=O)C1CCOC1C (centres unmarked) [5′] | 330 pg/mL | – | – |
| CCc1nc2c(N)nc3ccccc3c2n1CCCCN(C(N)=O)C1CCOCC1 [Example 2, 1-(4-(4-Amino-2-ethyl-1H-imidazo[4,5-c]quinolin-1-yl)butyl)-1-(tetrabydro-2H-pyran-4-yl)urea] | – | 1250 pg/mL | – |
| CCNCc1nc2c(N)nc3ccccc3c2n1CCCCN(C(C)=O)C1CCOCC1 [Example 3, N-(4-(4-Amino-2-((ethylamino)methyl)-1H-imidazo[4,5-c]quinolin-1-yl)butyl)-N-(tetrahydro-2H-pyran-4-yl)acetamide] | – | 1070 pg/mL | – |
| CCNCc1nc2c(N)nc3ccccc3c2n1CCCCN(C(N)=O)C1CCOCC1 [Example 4, 1-(4-(4-Amino-2-((ethylamino)methyl)-1H-imidazo[4,5-c]quinolin-1-yl)butyl)-1-(tetrahydro-2H-pyran-4-yl)urea] | – | 920 pg/mL | – |
| COCCc1nc2c(N)nc3ccccc3c2n1CCCCN(C(C)=O)C1CCOCC1 [Example 5, N-(4-(4-Amino-2-(2-methoxyethyl)-1H-imidazo[4,5-c]quinolin-1-yl)butyl)-N-(tetrahydro-2H-pyran-4-yl)acetamide] | – | 880 pg/mL | – |
| COCCc1nc2c(N)nc3ccccc3c2n1CCCCN(C(N)=O)C1CCOCC1 [Example 6, 1-(4-(4-Amino-2-(2-methoxyethyl)-1H-imidazo[4,5-c]quinolin-1-yl)butyl)-1-(tetrahydro-2H-pyran-4-yl)urea] | – | 1850 pg/mL | – |
| CCc1nc2c(N)nc3ccccc3c2n1CCCCN(C(C)=O)C1CCOC1C (centres unmarked) [example III, 3-{acetyl[4-(4-amino-2-ethyl-1H-imidazo[4,5-c]quinolin-1-yl)butyl]amino}-2,5-anhydro-1,3,4-trideoxypentitol] | – | – | EC50 ([2]; read-out: EC50 in the TLR7 reporter gene assay): 440 nM; EC50 in TLR7 reporter gene assay relative to Example 1 ([2]; fold higher EC50 than Example 1): ten-fold higher; maximum IFN-α release relative to present Example 1 ([1]; % of the maximum IFN-α release of Example 1): about 50% |
| CCc1nc2c(N)nc3ccccc3c2n1CCCCNC1CCOCC1 [example V, 2-ethyl-1-(4-((tetrahydro-2H-pyran-4-yl)amino)butyl)-1H-imidazo[4,5-c]quinolin-4-amine] | – | – | EC50 ([2]; highest concentration without any activity, read-out: activity towards TLR7 (no activity up to a concentration of)): > 30000 nM; activity towards TLR8 in the TLR8 reporter gene assay [3]: displayed activity |
